Experimental data as given in article PMC3185571 (Viruses, 2010).
Like-named read-outs stand apart in the source and are kept apart here.

Legend:
[1] = target: neuraminidase of A/Washington/10/2008, A (H1N1) Seasonal, WT (Influenza A virus, UniProt G3LYQ1); assay type: biochemical; settings: read-out: Mean IC50 ± SD
[2] = target: neuraminidase of A/Washington/01/2007, A (H3N2) Seasonal, WT (Influenza A virus, UniProt A7UPN3); test: biochemical
[3] = target: neuraminidase of B/Memphis/20/1996, B Seasonal, WT (Influenza B virus, UniProt C7FPS7); assay type: biochemical; settings: read-out: Mean IC50 ± SD
[4] = target: neuraminidase of A/California/07/2009, H1N1 Pandemic, WT (Influenza A virus (A/California/07/2009(H1N1)), UniProt C7FH46); assay type: biochemical, 2009 pandemic H1N1 influenza virus; settings: read-out: Mean IC50 ± SD
[5] = target: neuraminidase of seasonal influenza A(H1N1) H275 wildtype virus isolates (Influenza A virus, UniProt A8C8J7); assay type: biochemical
[6] = target: neuraminidase of seasonal influenza A(H3N2) virus isolates (Influenza A virus, UniProt X2GK54); assay type: biochemical
[7] = target: neuraminidase of seasonal influenza B virus isolates (Influenza B virus, UniProt U5XBU0); assay type: biochemical
[8] = target: neuraminidase of 2009 pandemic H1N1 H275 wildtype virus isolates (Influenza A virus, UniProt C3W5S3); assay type: biochemical, 2009 pandemic H1N1 influenza virus
[9] = target: neuraminidase of Pandemic H1N1 virus isolates (Influenza A virus, UniProt C7FH46); assay type: biochemical, 2009 pandemic H1N1 influenza virus
[10] = target: neuraminidase of A/England/412/2008 (H1N1), H275H/Y mix; assay type: biochemical, influenza A(H1N1) virus
[11] = system: neuraminidase of seasonal influenza A(H1N1) viruses; assay type: biochemical, influenza A(H1N1) virus
[12] = system: neuraminidase of B/New Jersey/02/2009; assay type: biochemical, influenza B virus
[13] = system: neuraminidase of B/Okinawa/10/2009; assay type: biochemical, influenza B virus
[14] = read-out: IC50 Statistical Cutoff (X0.75 + 3IQR)
[15] = read-out: IC50 X0.75 (75th Percentile)

CCC(CC)[C@H](NC(C)=O)[C@@H]1[C@H](O)[C@@H](C(=O)O)C[C@H]1N=C(N)N [Peramivir, peramivir]
IC50 [1]: 0.09 nM | IC50 ([2]; read-out: Mean IC50 ± SD): 0.12 nM | IC50 [3]: 0.31 nM | IC50 [4]: 0.06 nM | IC50 ([5]; read-out: IC50 Mean (±SD)): 0.1 nM | IC50 ([5]; read-out: IC50 Median): 0.1 nM | IC50 ([5]; read-out: IC50 Range): 0.05 to 0.17 nM | IC50 [5, 14]: 0.28 nM | IC50 [5, 15]: 0.13 nM | IC50 ([6]; read-out: IC50 Mean (±SD)): 0.17 ± 0.1 nM | IC50 ([6]; read-out: IC50 Median): 0.14 nM | IC50 ([6]; read-out: IC50 Range): 0.05 to 0.94 nM | IC50 [6, 14]: 0.4 nM | IC50 [6, 15]: 0.19 nM | susceptibility in NI assay [7]: sensitive | IC50 ([7]; read-out: IC50 Mean (±SD)): 0.56 nM | IC50 ([7]; read-out: IC50 Median): 0.56 nM | IC50 ([7]; read-out: IC50 Range): 0.24 to 1.1 nM | IC50 [7, 14]: 1.37 nM | IC50 [7, 15]: 0.68 nM | IC50 ([8]; read-out: IC50 Mean (±SD)): 0.08 ± 0.04 nM | IC50 ([8]; read-out: IC50 Median): 0.07 nM | IC50 ([8]; read-out: IC50 Range): 0.03 to 0.35 nM | IC50 [8, 14]: 0.22 nM | IC50 [8, 15]: 0.1 nM | susceptibility in NI assay [9]: sensitive | IC50 [10]: 0.51 nM

CC(=O)N[C@H]1[C@H]([C@H](O)[C@H](O)CO)OC(C(=O)O)=C[C@@H]1N=C(N)N [Zanamivir, zanamivir]
IC50 [2]: 0.47 nM | IC50 [4]: 0.26 nM | susceptibility in NI assay [6]: sensitive | susceptibility in NI assay [9]: sensitive | susceptibility in NI assay [11]: sensitive | susceptibility in NI assay [12]: reduced susceptibility | susceptibility in NI assay [13]: reduced susceptibility
